pKd: −log10 of the molar value. Like-named read-outs stand apart in the source and are kept apart here. Ends that are not written are not given here. Peptide text beside a SMILES is read from it.
Key:
[1] = system: colistin-resistant E. coli NMA 1557 (ColREC 1557); type: cell-based, Escherichia coli; details: MH broth, 2 × 10^5 cells/mL, 16 h, 37 °C, OD600, >95% killing
Source text: (§1) E. coli (KCTC 1682) was obtained from the Korean Collection for Type Cultures (KCTC, Jeongeup, Republic of Korea), and Acinetobacter baumannii (KCCM 40203) and Pseudomonas aeruginosa (KCCM 11328) from the Korea Culture Center of Microorganisms (KCCM, Seoul, Republic of Korea). Klebsiella pneumoniae (NCCP 16054), colistin-resistant E. coli NMA 1557 (ColREC 1557), NMS 12 (ColREC 12), and colistin-resistant A. baumannii NMS 1915 (ColRAB 1915), as well as colistin-resistant K. pneumoniae NMS 139 (ColRKP 139), were obtained from the National Institute of Health Multidrug Resistant Bacteria Specialized Pathogen Resources Bank (Osong, Republic of Korea).
(§2) The antibacterial abilities of the peptides (T. ni cecropin, cecropin A, polymyxin B, colistin, and melittin) were determined using the broth dilution method as previously reported. The peptides dissolved at 10 mg/mL in deionized water were serially diluted from 64 μM to 0.5 μM in 96-well plates using Mueller–Hinton (MH) broth, and bacteria cultured to exponential growth were added at 2 × 10^5 cells/mL. The group of bacteria that grew untreated in the broth was set as the positive control, and the uninoculated broth as the negative control. Dissolved peptides are colorless and equal to the OD value of the medium only. After 16 h incubation at 37 °C, the absorbance at 600 nm was measured using a SpectraMAX microplate reader (Molecular Devices, San Jose, CA, USA).

[2] = system: colistin-resistant E. coli NMS 12 (ColREC 12); type: cell-based, Escherichia coli; details: MH broth, 2 × 10^5 cells/mL, 16 h, 37 °C, OD600, >95% killing
Source text: as §1, §2

[3] = system: Acinetobacter baumannii (KCCM 40203); type: cell-based
Source text: as §1, §2

[4] = system: Klebsiella pneumoniae (NCCP 16054); type: cell-based
Source text: as §1, §2

[5] = system: colistin-resistant A. baumannii NMS 1915 (ColRAB 1915); details: MH broth, 2 × 10^5 cells/mL, 16 h, 37 °C, OD600, >95% killing
Source text: as §1
as §2, with “The” for “The antibacterial abilities of the peptides (T. ni cecropin, cecropin A, polymyxin B, colistin, and melittin) were determined using the broth dilution method as previously reported. The”

[6] = system: colistin-resistant K. pneumoniae NMS 139 (ColRKP 139); type: cell-based, Klebsiella pneumoniae; details: MH broth, 2 × 10^5 cells/mL, 16 h, 37 °C, OD600, >95% killing
Source text: as §1, §2

[7] = system: L-929 cells; test: Cytotoxicity, WST-8; type: cell-based, mouse; details: 24 h; for viability / survival rate: up to 100 μM peptide
Experimental: (§3) Murine macrophage RAW 264.7 cells and mouse fibroblast L-929 cells were used for research and were purchased from the Korea Cell Line Bank (Seoul, Republic of Korea). Both cells were cultured in Dulbecco’s Modified Eagle’s Medium (DMEM; Welgene, Gyeongsan, Republic of Korea) supplemented with 10% fetal bovine serum and 1% antibiotics (penicillin/streptomycin) at 37 °C in the presence of 5% CO2. To measure the cytotoxicities of peptides against RAW 264.7 cells and L-929 cells, both cell lines were seeded at a density of 1 × 10^5 cells/well in a 96-well plate, to which each concentration of peptide solution (from 1.6 μM to 100 μM) was added, followed by incubation for 22 h. Subsequently, WST-8 (Biomax Co., Ltd., Guri, Republic of Korea) was added at 10% volume of the final solution, and the mixture was incubated for an additional 2 h. Absorbance was measured at 450 nm. Percentages were calculated based on untreated cells.

[8] = system: sheep red blood cells (sRBCs); test: Hemolysis; type: cell-based; details: 1 h, 37 °C
Experimental: Sheep red blood cells (sRBCs; KisanBio, Seoul, Republic of Korea) were added to three volumes of phosphate-buffered saline (PBS; 35 mM phosphate buffer containing 150 mM NaCl, pH 7.4) and centrifuged five times at 4 °C, 1000× g for 5 min, followed by a final suspension in PBS at 4% (w/v). Peptides serially diluted from 100 μM to 3.1 μM in PBS at 100 μL in a 96-well plate were prepared, and an equal volume of blood solution was added. After incubation at 37 °C for 1 h, the plates were centrifuged for 5 min at 4 °C, 1000× g. The absorbance of the supernatant was measured at 405 nm. The 100% hemolysis control was 0.1% Triton-X 100 added to the blood solution; the negative control was blood solution added to PBS.

[9] = system: E. coli (KCTC 1682); type: cell-based, Escherichia coli
Source text: as §1, §2

[10] = system: Pseudomonas aeruginosa (KCCM 11328); type: cell-based
Source text: as §1, §2

[11] = system: all bacterial strains; test: Average MIC over all strains and relative selective index; type: cell-based; details: 8 strains; MIC above 64 μM taken as 128 μM
Experimental: as §2

[12] = system: RAW 264.7 cells; test: Cytotoxicity, WST-8; type: cell-based, mouse; details: 100 μM peptide, 24 h
Experimental: as §3

[13] = system: ColREC 12; test: Biofilm inhibition assay, crystal violet; type: cell-based, Escherichia coli; details: ColREC 12, 2 μM peptide, 16 h
Experimental: (§4) To quantify the biofilm inhibitory activity of each peptide, ColREC 1557 and ColREC 12 were cultured in Luria–Bertani (LB) broth overnight and then sub-cultured in MH broth. Different concentrations of peptide (from 1 μM to 64 μM) were prepared in 96-well plates using MH broth (containing 0.2% glucose) and incubated with bacteria (2 × 10^5 cells/mL) at 37 °C for 16 h. After incubation, the culture medium was removed and methanol was added as a fixative for 15 min. The completely dried plates were stained for 2 h by adding 100 μL of staining solution (0.1% (w/v) crystal violet in 0.25% (v/v) acetic acid). The residual staining solution was gently rinsed off three times using distilled water. Subsequently, 90% ethanol was used to dissolve the dye, and absorbance was measured at 600 nm. The untreated bacterial group was used as a control to compare biofilm production rates.

[14] = Limulus amebocyte lysate (LAL) assay, LPS neutralization; type: biochemical; details: LPS 2 ng/mL, 10 min, 37 °C
Experimental: To investigate the LPS-neutralizing activity, LAL assays were performed according to the protocol provided in the LAL assay kit (ToxinSensor™ Chromogenic LAL Endotoxin Assay Kit; GenScript, Piscataway, NJ, USA). Briefly, peptides diluted from 50 μM to 1.6 μM in LAL reagent water were incubated with LPS (2 ng/mL) for 10 min at 37 °C. LAL enzyme was then added and incubated under the same conditions. Substrate was added to react, after which three kinds of stop solutions were added in order. Absorbance (545 nm) was measured and quantified using an endotoxin standard graph.

[15] = system: ColREC 1557; type: cell-based, Escherichia coli; details: 16 h, crystal violet
Experimental: as §4

[16] = biological target: T1, TLR4/MD-2 complex (Homo sapiens, UniProt O00206+Q9Y6Y9); test: Surface plasmon resonance (SPR); type: binding; details: Biacore T200, CM5 chip, PBS with 0.05% Tween 20, 25 °C, read-out: equilibrium constant (KD) for TLR4/MD2
T1 construct: purchased R&D Systems
T1 sequence (O00206 24-631 limits assumed): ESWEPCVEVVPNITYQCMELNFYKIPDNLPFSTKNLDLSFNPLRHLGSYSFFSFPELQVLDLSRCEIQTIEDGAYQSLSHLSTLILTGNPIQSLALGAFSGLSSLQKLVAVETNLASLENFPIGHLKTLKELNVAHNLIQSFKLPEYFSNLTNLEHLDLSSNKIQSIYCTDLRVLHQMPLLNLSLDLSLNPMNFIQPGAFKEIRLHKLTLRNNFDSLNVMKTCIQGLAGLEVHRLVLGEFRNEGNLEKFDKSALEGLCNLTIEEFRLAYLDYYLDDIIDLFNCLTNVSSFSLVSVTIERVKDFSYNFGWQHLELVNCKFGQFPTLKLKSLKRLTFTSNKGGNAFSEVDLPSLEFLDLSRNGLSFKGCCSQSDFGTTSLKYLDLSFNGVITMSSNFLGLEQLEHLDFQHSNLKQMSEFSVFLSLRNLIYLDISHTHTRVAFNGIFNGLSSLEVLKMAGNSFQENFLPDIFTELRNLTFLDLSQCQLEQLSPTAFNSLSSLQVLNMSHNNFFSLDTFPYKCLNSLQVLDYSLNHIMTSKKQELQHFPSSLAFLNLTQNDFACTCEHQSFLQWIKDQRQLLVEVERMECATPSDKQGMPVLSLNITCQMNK
T1 sequence (Q9Y6Y9 17-160 limits assumed): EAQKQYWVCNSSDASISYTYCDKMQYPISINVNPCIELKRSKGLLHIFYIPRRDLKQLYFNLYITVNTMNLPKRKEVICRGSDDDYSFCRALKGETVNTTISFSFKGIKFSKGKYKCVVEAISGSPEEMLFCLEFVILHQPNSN
Experimental: Binding affinity measurements of the peptide to TLR4/myeloid differentiation factor 2 (MD-2) protein (R&D Systems) were performed on a Biacore T200 instrument (GE Healthcare, Danderyd, Sweden). The receptor was covalently bound to the carboxymethylated sensor chip surface using standard NHS/EDC coupling procedures. The sensor chip (Sensor Chip CM5; Cytiva, MA, USA) was loaded with 30 μg/mL of protein in sodium acetate buffer (pH 4.0) to a resonance value of 2500. Measurements were performed at a flow rate of 30 μL/min with increasing concentrations of peptide dissolved in PBS containing 0.05% Tween 20 at 25 °C. Analysis was performed using Biacore T200 Evaluation Software 3.0 (GE Healthcare, Chicago, IL, USA).

[17] = A. baumannii, MH broth, 2 × 10^5 cells/mL, 16 h, 37 °C, OD600, >95% killing
[18] = K. pneumoniae, MH broth, 2 × 10^5 cells/mL, 16 h, 37 °C, OD600, >95% killing
[19] = E. coli, MH broth, 2 × 10^5 cells/mL, 16 h, 37 °C, OD600, >95% killing
[20] = P. aeruginosa, MH broth, 2 × 10^5 cells/mL, 16 h, 37 °C, OD600, >95% killing

Compound | Minimal Inhibitory Concentration [1] | Minimal Inhibitory Concentration [2] | Minimal Inhibitory Concentration [3, 17] | Minimal Inhibitory Concentration [4, 18] | Minimal Inhibitory Concentration [5] | Minimal Inhibitory Concentration [6] | GM (geometric mean, average MIC value of all bacterial strains) [11] | cell viability [12] | viability / survival rate [7] | Minimal Inhibitory Concentration [9, 19] | Minimal Inhibitory Concentration [10, 20] | inhibition of biofilm formation [13] | also measured
CC[C@H](C)[C@H](NC(=O)CN)C(=O)NCC(=O)N[C@@H](C)C(=O)N[C@H](C(=O)N[C@@H](CC(C)C)C(=O)N[C@@H](CCCCN)C(=O)N[C@H](C(=O)N[C@@H](CC(C)C)C(=O)N[C@H](C(=O)N[C@H](C(=O)NCC(=O)N[C@@H](CC(C)C)C(=O)N1CCC[C@H]1C(=O)N[C@@H](C)C(=O)N[C@@H](CC(C)C)C(=O)N[C@H](C(=O)N[C@@H](CO)C(=O)N[C@@H](Cc1c[nH]c2ccccc12)C(=O)N[C@H](C(=O)N[C@@H](CCCCN)C(=O)N[C@@H](CCCNC(=N)N)C(=O)N[C@@H](CCCCN)C(=O)N[C@@H](CCCNC(=N)N)C(=O)N[C@@H](CCC(N)=O)C(=O)N[C@@H](CCC(N)=O)C(N)=O)[C@@H](C)CC)[C@@H](C)CC)[C@@H](C)O)[C@@H](C)O)C(C)C)C(C)C [melittin] | 2 µM | 2 µM | 4 µM | 32 µM | 2 µM | 32 µM | – | – | – | – | – | – | survival rate ([7]; 1.6 μM peptide): below 5%; hemolytic activity ([8]; 3.1 μM peptide): 8.2%; hemolytic activity ([8]; 12.5 μM peptide): 84.3%
CC[C@H](C)CCCCC(=O)N[C@@H](CCN)C(=O)N[C@H](C(=O)N[C@@H](CCN)C(=O)N[C@H]1CCNC(=O)[C@H]([C@@H](C)O)NC(=O)[C@H](CCN)NC(=O)[C@H](CCN)NC(=O)[C@H](CC(C)C)NC(=O)[C@@H](Cc2ccccc2)NC(=O)[C@H](CCN)NC1=O)[C@@H](C)O [polymyxin B] (HELM PEPTIDE1{[CC[C@H](C)CCCCC(=O)[*:2]].[Dab].T.[Dab].[Dab].[Dab].[dF].L.[Dab].[Dab].T}$PEPTIDE1,PEPTIDE1,5:R3-11:R2$$$V2.0; N-terminus assumed; bridges inferred) | 8 µM | 4 µM | – | – | 64 µM | 64 µM | 17.88 µM | 31.3% | 96.0% | – | – | – | Minimal Inhibitory Concentration ([9]; KCTC 1682, 16 h): 0.25 µM; Minimal Inhibitory Concentration ([3]; KCCM 40203, 16 h): 0.5 µM; Minimal Inhibitory Concentration ([10]; KCCM 11328, 16 h): 2 µM; Minimal Inhibitory Concentration ([4]; NCCP 16054, 16 h): 0.25 µM
KWKLFKKIEKVGQNIRDGIIKAGPAVAVVGQATQIAK-NH2 [cecropin A] | 1 µM | 1 µM | 2 µM | 1 µM | 1 µM | 2 µM | 2.25 µM | – | – | 2 µM | 8 µM | 80.8% | –
LL-37 | – | – | – | – | – | – | – | – | – | – | – | – | peptide concentration nearly neutralizing 10 enzyme units (EU) of LPS [14]: 12.5 µM
RWKFFKKIEKVGQNIRDGIIKAGPAVAVVGQAASITGK-NH2 [T. ni cecropin] | 1 µM | 1 µM | 1 µM | 1 µM | 1 µM | 2 µM | 1.63 µM | 93.6% | 95% | 2 µM | 4 µM | 82.5% | inhibition of biofilm formation ([15]; ColREC 1557, 2 μM peptide): 75.3%; inhibition of biofilm formation ([15]; ColREC 1557, 4 μM peptide): over 90%; pKd [16]: 6.25; hemolytic activity ([8]; 100 μM peptide): no hemolytic activity
